According to US6566096B2, “Mammalian EDG-7 receptor homologs” (NPS Allelix Corp., priority 1997, dated 2003):
“And” between values parts separate entries of the source, which are not always exact repeats. Equal values may be shown once.

Target: T1, HEDG-7 receptor (Homo sapiens, UniProt O95977, A140V/I378S)
T1 construct: it was desirable to isolate a full-length cDNA clone from a human source; expressed in transfected cells; host or cells: 293-EBNA cells (Invitrogen, Cat. R620-07), transiently transfected with pc3-hedg7#M10 (pcDNA3.1) and a 2x SRE-luciferase reporter
T1 sequence (O95977 1-384 A140V/I378S): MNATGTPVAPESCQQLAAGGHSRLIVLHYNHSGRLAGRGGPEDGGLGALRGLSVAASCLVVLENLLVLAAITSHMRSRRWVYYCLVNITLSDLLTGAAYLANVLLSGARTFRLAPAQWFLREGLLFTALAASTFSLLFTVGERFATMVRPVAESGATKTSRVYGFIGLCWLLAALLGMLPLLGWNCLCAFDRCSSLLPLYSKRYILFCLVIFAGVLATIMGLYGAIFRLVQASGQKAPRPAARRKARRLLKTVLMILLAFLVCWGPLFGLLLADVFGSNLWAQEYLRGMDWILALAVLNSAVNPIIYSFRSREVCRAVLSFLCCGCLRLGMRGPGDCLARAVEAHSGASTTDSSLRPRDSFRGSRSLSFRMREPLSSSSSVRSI
Assay: SRE-luciferase reporter gene response in 293-EBNA cells transfected with pc3-hedg7#M10
Type: cell-based
Conditions: for Max. Fold: maximal luciferase fold response after subtracting endogenous response in pcDNA3-transfected cells; for Max. Fold / EMax (Percent) / HEDG7 activation (conclusion from dose response): 6 hr treatment; for EMax (Percent): relative efficacy; for EMax (Percent) / HEDG7 activation (conclusion from dose response) / SRE response (agonist specificity) / Rank (EMax): 293-EBNA cells transfected with pc3-hedg7#M10; for HEDG-7 agonist activity: summary statement in the description; for HEDG7 activation (conclusion from dose response): various concentrations; for SRE response (agonist specificity): 5 μM compound, serum-free medium; for Rank (EMax): rank of efficacy among sphingolipids tested
Protocol: Miniprep DNA from 4 clones was tested by cotransfection into 293-EBNA cells (Invitrogen, Cat. R620-07) with a 2× SRE-Luciferase reporter gene constructed in-house. We previously determined that these cells are an ideal expression host for edg receptors that respond to sphingolipids, since only a single edg gene is expressed (the LPA receptor subtype […], see U.S. Ser. No. 08/997,803), under normal culture conditions. […] Thus, the low endogenous expression of previously identified S1P receptor subtypes (edg-1, edg-3, edg-4/H218) and hedg7 (determined here) permits overexpression and functional analysis of these receptors in a relatively unresponsive cell background. From this preliminary cotransfection experiment, the expression clone pC3-hEdg7#M10 was chosen for further analysis. The nucleotide sequence and amino acid sequence of the hedg-7 sequence from the pC3-hEdg7#M10 clone are shown in FIG. 1B and FIG. 2B, respectively. Furthermore, an alignment of the hedg-7 amino acid sequence from the pC3-hEdg7#M10 clone and from the genomic DNA sequence is shown in FIG. 3B.
Transient transfection protocol for 293-EBNA:
1) 100 mm plates of 293-EBNA with a confluency of −80% were used for transfection.
2) SRE Reporter Gene Cotransfection: Expression plasmid ([…]) and reporter plasmid (2× SREtk-p4Luc-zeo; 0.5 μg) DNA samples were combined and diluted in 750 μl of DMEM/F12 (serum-free media) and 20 μl Plus Reagent (Lipofectamine Plus Kit, Life Technologies Cat. 10964-013), and incubated at room temperature for 15 min.
3) 30 μl Lipofectamine Reagent (Lipofectamine Plus Kit) was diluted in 750 μl DMEM/F12. The diluted Lipofectamine was then combined with the DNA/Plus mixture and incubated at RT for 15 min.
4) The 293-EBNA plates were washed once with PBS, and 5 ml DMEM/F12 was added to each plate.
5) DNA/Plus/Lipofectamine mixture was added to each plate of 293-EBNA cells. The plates were left for 3 hr at 37° C. in a 5% CO2 incubator.
6) The transfection medium was replaced with DMEM/F12 containing 10% FBS to recover overnight.
2) Transfected cells were harvested by trypsinization and 20,000 cells per well were plated in 96-well Blackview plates coated with poly D-lysine (Becton Dickinson Labware, Cat. 40640). Medium was DMEM/F12 plus 0.15% FBS. No. cells were plated in the outside wells of the 96-well plate. Cells were returned to the incubator for 48 hr.
1) Media was removed and cells treated with compounds diluted in serum-free DMEM/F12 media and the following treatments: a) Untreated: Serum-free DMEM/F12; b) 10 μM S1P in DMEM/F12 medium.
2) The cells were treated 5 hr in the 37° C. incubator.
3) Luclite kit (Packard; Cat. 6016911) was used for luciferase assay. All reagents were brought to room temperature before use.
4) Media was removed from each well. 50 μl 0.5M HEPES pH 7.8, 1 mM MgCl2, 1 mM CaCl2 was added to all wells of 96-well plate.
5) Luclite substrate was made up and 50 μl substrate was added to each well as specified in the kit.
6) Plates were incubated at room temperature for 30 min.
7) After incubation, plates were counted in a 12-detector Packard Top Count on a program without dark delay.
To determine the agonist specificity of HEDG-7, 293-EBNA cells were transfected with pc3-hedg7#M10, serum-deprived as described above, and treated in serum-free medium with 5 μM concentrations of SPC, S1P, LPA, lysophosphatiylcholine (LPC), edelfosine, psychosine, anandamide or 2-arachidonylglycerol. Control cells were treated with serum-free medium alone, and the SRE response was expressed as fold induction relative to this control. After 5 hr of treatment, luciferase activity was measured.
Transfection of a HEDG7 expression vector pc3-hedg7#M10 was carried out using Lipofectamine Plus (Life Technologies, Cat. 10964-013) according to manufacturer's instructions. The next day, transfected cells were harvested by trypsinization and replated at 30,000 cells per well in poly-(D)lysine-coated 96-well plates in medium containing 0.15% FBS. […]

Row | Max. Fold [Fold] | EMax (Percent) [%] | SRE-Luciferase reporter response (10 μM S1P treatment, 5 hr, EBNA-293 cells transfected with pc3-hedg7#M10 and 2× SRE-Luciferase reporter, 2 independent experiments) | Compound | HEDG-7 agonist activity | HEDG7 activation (conclusion from dose response) | SRE response (agonist specificity) (5 hr) | Rank (EMax)
1 | 1.00 | 0 | – | CCCCCCCCCCCCC/C=C/[C@@H](O)C(N)CO[C@@H]1O[C@H](CO)[C@@H](O)[C@H](O)[C@@H]1O (stereo partly drawn) [Glucospychosine, glucopsychosine] | do not act as HEDG-7 agonists | failed to activate HEDG7 at nontoxic concentrations | – | –
2 | 1.00 | 0 | – | CCCCCCCCCCCCC/C=C/[C@@H](O)[C@@H](N)CO[C@@H]1O[C@H](CO)[C@H](O)[C@H](O)[C@H]1O [Psychosine, psychosine] | do not act as HEDG-7 agonists | failed to activate HEDG7 at nontoxic concentrations | – | –
3 | 3.59 | 100 | 5.3 fold and 6.5 fold | CCCCCCCCCCCCC/C=C/[C@@H](O)[C@@H](N)COP(=O)(O)O [S1P] | agonists for HEDG-7 | full agonists | robustly induced expression of the SRE reporter gene | 1
4 | – | – | – | CCCCC/C=C\C/C=C\C/C=C\C/C=C\CCCC(=O)NCCO [anadamide, anandamide] | do not act as HEDG-7 agonists | – | – | –
5 | – | – | – | CCCCCCCCCCCCCCC[C@@H](O)[C@@H](N)COP(=O)(O)O [dihydro-S1P, dihydrosphingosine 1-phosphate] | do not act as HEDG-7 agonists | – | – | –
6 | – | – | – | lysophosphatidylcholine [LPC] | – | – | failed to activate the SRE response | –

Row | Compound | Max. Fold [Fold] | EMax (Percent) [%] | SRE-Luciferase reporter response (10 μM S1P treatment, 5 hr, EBNA-293 cells transfected with pc3-hedg7#M10 and 2× SRE-Luciferase reporter, 2 independent experiments) | HEDG-7 agonist activity | HEDG7 activation (conclusion from dose response) | SRE response (agonist specificity) (5 hr) | Rank (EMax)
7 | CCCCCCCCCCCCC/C=C/[C@@H](O)[C@@H](N)COP(=O)([O-])OCC[N+](C)(C)C [SPC] | 3.59 | 100 | – | agonists for HEDG-7 | full agonists | robustly induced expression of the SRE reporter gene | 1
